The values below come from the OligoGym collection.

Values joined by “and” are separate entries in the source; they are usually repeats but may differ in a detail not shown here. Equal values may be shown once. After the bases stand the sugars from the 5' end (letter, count) and the backbone: PS all phosphorothioate, else s phosphorothioate and o phosphodiester by linkage. Methylation of C is not given here. k = constrained ethyl (cEt); d = 2'-deoxy (DNA)

This data set deals with MALAT1. The following applies: ASO, A431, 0.005 µM.
AATTTTGAGTATGCTG (sugars k3 d10 k3, PS): the target mRNA inhibition was 54% and 71%.

For TCCCCCCCGCCTCAGT (sugars k3 d10 k3, PS), the target mRNA inhibition was 16%.

As for ATGGTAGATTCCGTAA (sugars k3 d10 k3, PS), the target mRNA inhibition turned out to be 14%.

On to AGCAGTAACATCTGAT (sugars k3 d10 k3, PS), for which the target mRNA inhibition was 41%.

On to GCCCACAAGGATCCAA (sugars k3 d10 k3, PS), for which the target mRNA inhibition is 15%.

On to ATTTATAGACGGAGAA (sugars k3 d10 k3, PS), for which the target mRNA inhibition is 9%.

Consider CGTGTGGTTGCCAAGC (sugars k3 d10 k3, PS), for which the target mRNA inhibition turned out to be 45%.

GCAGATTCTGTGTTAT (sugars k3 d10 k3, PS): the target mRNA inhibition was -2%.

Consider GACAGACCTAAGGGAA (sugars k3 d10 k3, PS), for which the target mRNA inhibition was 34%.

As to TCCCATCACTGAAGCC (sugars k3 d10 k3, PS), the target mRNA inhibition came out at 44%.

Turning to CCAGGATTAATGTAGT (sugars k3 d10 k3, PS), the target mRNA inhibition was 71% and 55%.

On to CCCGCCTCAGTTACAC (sugars k3 d10 k3, PS), for which the target mRNA inhibition worked out at 4%.

Regarding GCTGTCTTCCTAGATT (sugars k3 d10 k3, PS), the target mRNA inhibition came out at 36%.

Regarding TCTGAACCGGAGCAGG (sugars k3 d10 k3, PS), the target mRNA inhibition amounted to 19%.

As for TAACTAGGCTTTAAAT (sugars k3 d10 k3, PS), the target mRNA inhibition came out at 14%.

Consider CTTGTGTTCTCTTGAG (sugars k3 d10 k3, PS), for which the target mRNA inhibition was 13%.

Take GCTCCTGACAAATTAT (sugars k3 d10 k3, PS): the target mRNA inhibition stood at 17%.

As for TGTCAATTAATGCTAG (sugars k3 d10 k3, PS), the target mRNA inhibition came to 42%.

Regarding AAAGATTTGAGCTGCA (sugars k3 d10 k3, PS), the target mRNA inhibition is -4%.

Consider TGCGCTGGCTGCCTCA (sugars k3 d10 k3, PS), for which the target mRNA inhibition was 25%.

In the case of CCGGAACTTTTAAAAT (sugars k3 d10 k3, PS), the target mRNA inhibition was found to be 13%.

AACTGCTTGCAGTCCT (sugars k3 d10 k3, PS): the target mRNA inhibition worked out at 5%.

Consider GGATCCTCTACGCACA (sugars k3 d10 k3, PS), for which the target mRNA inhibition worked out at 19%.

With TAGCTTGACAAGCAAT (sugars k3 d10 k3, PS), the target mRNA inhibition is 12%.

For the sequence AAATGGTAGATTCCGT (sugars k3 d10 k3, PS), the target mRNA inhibition is 60% and 62% and 50%.

In the case of GAATTCGATCACCTTC (sugars k3 d10 k3, PS), the target mRNA inhibition was -1%.

Regarding AACCAGGAGTGCCAAC (sugars k3 d10 k3, PS), the target mRNA inhibition was -23%.

Turning to GTTAACTAGGCTTTAA (sugars k3 d10 k3, PS), the target mRNA inhibition stood at 23%.

Take ATAATCTCCCACCTGT (sugars k3 d10 k3, PS): the target mRNA inhibition was determined as 17%.

Regarding TTATATTAGGTTCTCG (sugars k3 d10 k3, PS), the target mRNA inhibition was -6%.

CTTATGGAACTTGAAT (sugars k3 d10 k3, PS): the target mRNA inhibition was -5%.

In the case of GAAGAAGCTTCATCTC (sugars k3 d10 k3, PS), the target mRNA inhibition was found to be 15%.

TTCGCAGACAAAGTTT (sugars k3 d10 k3, PS): the target mRNA inhibition amounted to 22%.

For ACTGAAAACTCCCCCC (sugars k3 d10 k3, PS), the target mRNA inhibition was -3%.

For the sequence AATTAAATTGATGGGC (sugars k3 d10 k3, PS), the target mRNA inhibition amounted to 17%.

Regarding AGTCAAGCTCCTGACA (sugars k3 d10 k3, PS), the target mRNA inhibition turned out to be 13%.

On to GAAATCCCCTAGGGAA (sugars k3 d10 k3, PS), for which the target mRNA inhibition amounted to 6%.

In the case of GCAATATCTTAGTAAC (sugars k3 d10 k3, PS), the target mRNA inhibition was 23%.

For the sequence TTCCTTTCATAGAGCC (sugars k3 d10 k3, PS), the target mRNA inhibition is 70% and 88%.

For the sequence TAATGTCAGCCCAGTA (sugars k3 d10 k3, PS), the target mRNA inhibition is 7%.

As for TGCTGATAAACTCACT (sugars k3 d10 k3, PS), the target mRNA inhibition is 46%.

Turning to CTATATAAGGTCAATA (sugars k3 d10 k3, PS), the target mRNA inhibition came out at 16%.

As to TCACGGATTTTTACCA (sugars k3 d10 k3, PS), the target mRNA inhibition amounted to 28%.

On to ACAAGGATCCAAGCTA (sugars k3 d10 k3, PS), for which the target mRNA inhibition is -7%.

With TTCAACTGGGAATACT (sugars k3 d10 k3, PS), the target mRNA inhibition amounted to 17%.

For ATCCAAGCTACTGGCT (sugars k3 d10 k3, PS), the target mRNA inhibition worked out at 40%.

For CCGTAACAGGCCACTG (sugars k3 d10 k3, PS), the target mRNA inhibition worked out at 30%.

In the case of TTGAGGCAAGTCCTCA (sugars k3 d10 k3, PS), the target mRNA inhibition was 3%.

On to GTACTATAGCATCTGT (sugars k3 d10 k3, PS), for which the target mRNA inhibition turned out to be 45%.

With ATTCCTTATTTAGAGG (sugars k3 d10 k3, PS), the target mRNA inhibition was -11%.

For AAGAGCCAAGCACTCA (sugars k3 d10 k3, PS), the target mRNA inhibition was determined as 12%.

On to TTGAAACCGATTATGG (sugars k3 d10 k3, PS), for which the target mRNA inhibition is 42%.

Take GCTACAACAAGTAAGC (sugars k3 d10 k3, PS): the target mRNA inhibition was 9%.

For GATTATGGATCATGCC (sugars k3 d10 k3, PS), the target mRNA inhibition is 47% and 61%.

On to CGAGTTCAAGTGGCCT (sugars k3 d10 k3, PS), for which the target mRNA inhibition came out at 18%.

For CTGGTTAGGTATGAGC (sugars k3 d10 k3, PS), the target mRNA inhibition is 3%.

As to GAGGTATGACATATAA (sugars k3 d10 k3, PS), the target mRNA inhibition was 54% and 49% and 50%.

For GACTTGCTCCCAAGAC (sugars k3 d10 k3, PS), the target mRNA inhibition worked out at 7%.

With GTTTACCACCTTTTGA (sugars k3 d10 k3, PS), the target mRNA inhibition came to 3%.

CTAAACAATTACCTAA (sugars k3 d10 k3, PS): the target mRNA inhibition was determined as 3%.

ATTTACTTGCCAACAG (sugars k3 d10 k3, PS): the target mRNA inhibition stood at 47%.

Take ATTCCCACCCAAAAGC (sugars k3 d10 k3, PS): the target mRNA inhibition worked out at 5%.

In the case of GCGCTTAAGAGGGCAG (sugars k3 d10 k3, PS), the target mRNA inhibition amounted to 6%.

Turning to GATCATTAAGCCACTT (sugars k3 d10 k3, PS), the target mRNA inhibition amounted to 10%.

With ACCTTCCGCCGCCTCT (sugars k3 d10 k3, PS), the target mRNA inhibition worked out at 33%.

ATGACGCAATTCTCCC (sugars k3 d10 k3, PS): the target mRNA inhibition was 15%.

With TCCTTCTATAGTCTGA (sugars k3 d10 k3, PS), the target mRNA inhibition worked out at 14%.

As for ATCCCTTCAGGATCAT (sugars k3 d10 k3, PS), the target mRNA inhibition was found to be 19%.

In the case of CCGACCTCACGGATTT (sugars k3 d10 k3, PS), the target mRNA inhibition was 39%.

As to ACCCAGTTTGTCAATA (sugars k3 d10 k3, PS), the target mRNA inhibition turned out to be 10%.

Regarding TTAATGTAGTGTAACA (sugars k3 d10 k3, PS), the target mRNA inhibition was determined as 30%.

Turning to TCTGCGGCCCCCCAGT (sugars k3 d10 k3, PS), the target mRNA inhibition was determined as 25%.

Regarding CATTTTGCCCTTAGCT (sugars k3 d10 k3, PS), the target mRNA inhibition turned out to be 54%.

As for TACGAAAGTCCTTCAC (sugars k3 d10 k3, PS), the target mRNA inhibition was found to be 35%.

Regarding ACAGAGCTGCTCCCCG (sugars k3 d10 k3, PS), the target mRNA inhibition amounted to 18%.

For AAGTAAGCCCCACCCC (sugars k3 d10 k3, PS), the target mRNA inhibition turned out to be 37%.

As for CTTTAAGCTGTTTAAG (sugars k3 d10 k3, PS), the target mRNA inhibition is -4%.

Regarding GTGTTTACACTGCTCT (sugars k3 d10 k3, PS), the target mRNA inhibition is 6%.

In the case of GATTAGAGAAGAATCC (sugars k3 d10 k3, PS), the target mRNA inhibition was 14%.

As for CTGCAATCATAAACTA (sugars k3 d10 k3, PS), the target mRNA inhibition stood at 10%.

For the sequence TGCTACTCTTCTAAGT (sugars k3 d10 k3, PS), the target mRNA inhibition came out at 19%.

Turning to TTATTCCAGGATTAAT (sugars k3 d10 k3, PS), the target mRNA inhibition was -5%.

Turning to TATACTTCTCCAATAC (sugars k3 d10 k3, PS), the target mRNA inhibition amounted to 18%.

Regarding ACATTTGGCCTACTCA (sugars k3 d10 k3, PS), the target mRNA inhibition is 46%.

With CCATGGTTGTCCTACT (sugars k3 d10 k3, PS), the target mRNA inhibition turned out to be 10%.

For GCCCCAGTCCTTTACA (sugars k3 d10 k3, PS), the target mRNA inhibition came out at 3%.

In the case of TCCCATAACTGATCTG (sugars k3 d10 k3, PS), the target mRNA inhibition stood at 31%.

For the sequence CGCAATTCTCCCTGCG (sugars k3 d10 k3, PS), the target mRNA inhibition was 23%.

In the case of TAGAGAAGAATCCCCC (sugars k3 d10 k3, PS), the target mRNA inhibition worked out at 34%.

As to CACCTTCCGCCGCCTT (sugars k3 d10 k3, PS), the target mRNA inhibition is -25%.

TAAAGTAGACCAACTA (sugars k3 d10 k3, PS): the target mRNA inhibition stood at 14%.

TACGAAACTCCCCCAT (sugars k3 d10 k3, PS): the target mRNA inhibition worked out at 6%.

For the sequence AGCATTCCTTCGGATG (sugars k3 d10 k3, PS), the target mRNA inhibition was determined as 14%.

Regarding CACACCCAGAAGTGTT (sugars k3 d10 k3, PS), the target mRNA inhibition was 13%.

With CTGCAGGCTATTACCT (sugars k3 d10 k3, PS), the target mRNA inhibition was -6%.

For CGGAAATTTTTCTACC (sugars k3 d10 k3, PS), the target mRNA inhibition worked out at 8%.

In the case of CCCAACTGCTTGCAGT (sugars k3 d10 k3, PS), the target mRNA inhibition came out at 9%.

Take GTTGAGAAGTGGCAAA (sugars k3 d10 k3, PS): the target mRNA inhibition stood at 20%.

Regarding ATCATTAAGCCACTTC (sugars k3 d10 k3, PS), the target mRNA inhibition was 53% and 69%.
